According to paper PMC6753081 (Nature Communications, 2019):

Experiments:
FKBP12 (C. albicans) = biological target: T1, FKBP12 (C. albicans) (Candida albicans, UniProt P28870); assay type: binding; details: pH […] °C, […] phosphate, […] NaCl
T1 construct: gene RBP1; E. coli BL21(DE3), N-terminal 6xHis cut by thrombin, 15N/13C labelled, free FKBP12
T1 sequence (P28870 1-124): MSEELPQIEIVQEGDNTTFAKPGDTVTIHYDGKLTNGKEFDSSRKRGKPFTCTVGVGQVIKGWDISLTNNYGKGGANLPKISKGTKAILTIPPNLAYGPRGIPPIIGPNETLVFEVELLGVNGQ

[1] = biological target: T2, A. fumigatus CN/FKBP12 complex (CnA/CnB/AfFKBP12) (Aspergillus fumigatus, UniProt Q4WDF2+Q4WLV6+Q4WUR1); details: ternary complex CnA/CnB-FK506-FKBP12; at the FKBP12-BBH/CnB interface, not the phosphatase active site
T2 construct: gene cnaA

[2] = biological target: T3, C. neoformans calcineurin catalytic subunit (CnA), residues 34-402 (C. neoformans, UniProt O42773 34-402); assay: crystal structure; details: both partners purified
T3 construct: also called calcineurin A
T3 sequence (O42773 34-402): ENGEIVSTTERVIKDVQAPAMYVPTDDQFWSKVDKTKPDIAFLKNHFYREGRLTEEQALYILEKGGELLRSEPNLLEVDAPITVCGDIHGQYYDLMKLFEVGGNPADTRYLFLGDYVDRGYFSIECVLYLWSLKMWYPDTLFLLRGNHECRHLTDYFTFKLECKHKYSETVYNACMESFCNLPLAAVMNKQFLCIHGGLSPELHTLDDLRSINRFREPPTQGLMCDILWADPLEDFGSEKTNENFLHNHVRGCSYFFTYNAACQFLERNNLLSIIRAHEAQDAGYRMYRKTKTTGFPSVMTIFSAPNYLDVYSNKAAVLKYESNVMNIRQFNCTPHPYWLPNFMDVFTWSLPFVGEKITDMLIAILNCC

T2 sequence (Q4WDF2 entry or part of it): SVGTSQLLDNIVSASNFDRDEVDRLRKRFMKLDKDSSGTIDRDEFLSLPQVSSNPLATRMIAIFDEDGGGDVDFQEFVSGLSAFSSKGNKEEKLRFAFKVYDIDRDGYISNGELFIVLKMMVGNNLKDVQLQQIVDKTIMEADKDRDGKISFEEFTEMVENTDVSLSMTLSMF
T2 sequence (Q4WUR1 2-370): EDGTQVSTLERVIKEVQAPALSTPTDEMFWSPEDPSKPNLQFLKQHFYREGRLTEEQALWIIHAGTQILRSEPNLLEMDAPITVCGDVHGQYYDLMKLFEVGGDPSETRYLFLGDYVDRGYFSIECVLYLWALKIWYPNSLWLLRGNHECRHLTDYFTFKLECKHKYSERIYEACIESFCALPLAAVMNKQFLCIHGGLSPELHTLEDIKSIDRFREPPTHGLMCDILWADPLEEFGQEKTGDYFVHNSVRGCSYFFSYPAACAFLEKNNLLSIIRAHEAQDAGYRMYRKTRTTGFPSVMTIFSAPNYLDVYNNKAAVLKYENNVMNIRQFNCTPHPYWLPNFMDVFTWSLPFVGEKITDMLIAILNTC
T2 sequence (Q4WLV6 2-112): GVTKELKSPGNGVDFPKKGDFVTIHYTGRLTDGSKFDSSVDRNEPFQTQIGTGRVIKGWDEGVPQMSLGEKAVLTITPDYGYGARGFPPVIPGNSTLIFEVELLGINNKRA

Molecule: C=CC[C@@H]1/C=C(\C)C[C@H](C)C[C@H](OC)[C@H]2O[C@@](O)(C(=O)C(=O)N3CCCC[C@H]3C(=O)O[C@H](/C(C)=C/[C@@H]3CC[C@@H](O)[C@H](OC)C3)[C@H](C)[C@@H](O)CC1=O)[C@H](C)C[C@@H]2OC [FK506]
- NMR resonance assignment of apo and FK506-bound state (FKBP12 (C. albicans)): A. fumigatus and C. albicans were determined in both the apo and FK506 bound states
- X-ray crystal structure, 2.50 Å [1]: A single copy of the complex was placed per asymmetric unit (PDB ID: 6TZ7)

B1: C. neoformans calcineurin regulatory subunit (CnB), residues 1-175 (natural protein)
chain: MGAAESSMFNSLEKNSNFSGPELMRLKKRFMKLDKDGSGSIDKDEFLQIPQIANNPLAHRMIAIFDEDGSGTVDFQEFVGGLSAFSSKGGRDEKLRFAFKVYDMDRDGYISNGELYLVLKQMVGNNLKDQQLQQIVDKTIMEADKDGDGKLSFEEFTQMVASTDIVKQMTLEDLF
notes: also called calcineurin B
- binding result [2]: binds
